{"source": "patent US12173042B2", "about": "“Methods of treating cancers with CT45 targeted therapies” (The University of Chicago, priority 2016, dated 2024)", "key": {"[1]": {"test_system": "chromatin enrichment of KAP-1 or PP4", "assay": "Chromatin fractionation", "assay_type": "cell-based, human", "details": "OVCAR5-V5-CT45 cell line", "description": "Chromatin fractionation was performed as described previously. Soluble proteins and proteins bound to open or compacted chromatin were separated by stepwise increasing the salt and nuclease (MNase) treatment. 1E7 cells were washed with PBS and 1 ml low salt buffer (LSB: 10 mM HEPES [pH 7.4], 25 mM KCl, 10 mM NaCl, 1 mM MgCl2, 0.1 mM EDTA). Pelleted cells were then resuspended in six times the packed cell volume (PCV) of LSB supplemented with protease and phosphatase inhibitor cocktail (Roche). After snap freezing in liquid nitrogen, samples were quickly thawed and immediately centrifuged (10 min at 10,000 rpm). The pellet was resuspended in a volume of high-salt buffer (HSB: 50 mM Tris-HCl [pH 8.0], 5% [v/v] glycerol, 1 mM EDTA, 10 mM MgCl2, 400 mM KCl, supplemented with protease and phosphatase inhibitor cocktail), equal to 0.25 V of LSB. After centrifugation at 10,000 rpm (supernatant=nucleoplasmic fraction), the pellet was resuspended in a volume nuclease buffer containing 10 U/ml MNase (NEB) and incubated at 37° C. for 10 min and centrifuged for 5 min at 10,000 rpm (supernatant=chromatin fraction 1). The pellet was then resuspended in the same volume of nuclease buffer containing 100 U/ml MNase and incubated another 45 min at 37° C. before an equal V of solubilization buffer (nuclease buffer+2% [v/v] NP-40, 2% [v/v] Triton X-100, 600 mM NaCl) was added. […]"}, "[2]": {"test_system": "γH2AX and cleaved caspase-3 in CT45-expressing cancer cells", "assay": "Western blot of γH2AX and cleaved caspase-3", "assay_type": "cell-based, human", "details": "day 5", "description": "(§1) Cells were treated with 5 μM carboplatin plus 1.5 nM paxlitaxel for 3 days and then incubated an additional 2 days without drug prior to collection on day 5. Both adherent and non-adherent cells were collected in RIPA buffer (25 mM Tris-HCl pH 7.6, 150 mM NaCl, 1% NP-40, 0.5% sodium deoxycholate, 0.1% SDS) supplemented with protease inhibitor cocktail (Thermo Scientific) and phosphatase inhibitor cocktail (Sigma). Lysates were incubated for 30 min on ice before centrifugation (15 min, 14 000 rpm, 4° C.). The quantity of protein was determined by BCA reagent (Pierce). The extracts were analyzed by SDS-PAGE on a 4-20% gradient gel (Bio-Rad).\nas §1, with “indicated drugs” for “5 μM carboplatin plus 1.5 nM paxlitaxel”, “media was changed. On indicated” for “incubated an additional 2 days without drug prior to collection on”, “of collection, both” for “5. Both”, “ice, sonicated and cleared by” for “ice before”"}, "[3]": {"test_system": "OVCAR5-V5 (control plasmid) tumors", "assay": "Subcutaneous tumor growth in nude mice, control vector tumors", "assay_type": "in vivo, athymic nude mice", "details": "carboplatin 20 mg/kg tail vein 1 time/week, control cell line", "description": "(§2) 5 million OVCAR5-V5 or OVCAR5-V5-CT45 cells suspended in a 1:2 solution of serum-free media to growth-factor reduced matrigel were injected subcutaneously into the right and left flanks respectively, of 8 week old female athymic nude mice. After 5 days, treatment was administered through the tail vein 1 time/week at 20 mg/kg. Sterile water served as the control treatment. Tumor growth was measured every 2-3 days using calipers until the tumor neared 1 cm3 and was measured daily. Once the tumor reached 1 cm3 the mouse was sacrificed. 4 mice were removed from the study early due to ulcerations of the skin. All experiments were approved by the Institutional Animal Care and Use Committee of the University of Chicago.\nas §2, with “Five million” for “5 million”, “8 weeks” for “8 week”, “1 cm^3” for “1 cm3”, “skin. […]” for “skin. All experiments were approved by the Institutional Animal Care and Use Committee of the University of Chicago.”"}, "[4]": {"test_system": "KAP-1 Ser824 phosphorylation", "assay": "KAP-1 Ser824 phosphorylation (western blot, immunofluorescence)", "assay_type": "cell-based, human", "details": "carboplatin 5 μM", "description": "as §1, with “indicated drugs” for “5 μM carboplatin plus 1.5 nM paxlitaxel”, “media was changed. On indicated” for “incubated an additional 2 days without drug prior to collection on”, “of collection, both” for “5. Both”, “ice, sonicated and cleared by” for “ice before”\nCells were treated with 0 or 5 μM carboplatin on glass chamber slides. After 72 hr, media was changed. At designated timepoints, slides were fixed for 10 min at room temperature with 4% paraformaldehyde, cells were washed and permeabilized with PBS/0.1% Triton-X for 15 min and then blocked for 1 hr in blocking buffer (PBS/0.1% Triton-X/0.05% BSA/0.05% goat serum). Cells were washed three times and then were then incubated with primary antibody overnight diluted in blocking buffer at 4° C. Following three washes, cells were incubated with secondary antibody (diluted in blocking buffer) for 1 hr at room temperature and then with Hoechst 33342 for 2 min. Slides were mounted with ProLong Gold Antifade. […] A minimum of 100 cells/sample were analyzed. […]"}, "[5]": {"test_system": "OVCAR5 stably overexpressing CT45", "assay": "Clonogenic survival assay, OVCAR5", "assay_type": "cell-based, human", "details": "CT45 expressing cells treated with carboplatin", "description": "Cells were treated with different carboplatin concentrations for 48 hours and 7-9 days after treatment colonies were counted and plotted as a percent of control on a logarithmic scale.\nCells were treated with different carboplatin concentrations for 48-72 hours. 2000 cells per 6-well were then plated for 7-9 days in drug-free medium. Grown colonies were fixed and stained with 1% formaldehyde, 1% methanol and 0.05% Crystal Violet for 20 min. Colony numbers were then counted with the Colony Area ImageJ plugin and plotted as percent of control on a logarithmic scale."}}}
{"molecule": "N.N.O=C([O-])C1(C(=O)[O-])CCC1.[Pt+2]", "note": "[carboplatin]", "values": [{"measurement": "chromatin enrichment of KAP-1 or PP4", "setting": "[1]", "value": "did not find"}, {"measurement": "levels of cleaved caspase-3", "setting": "[2]", "value": "increased levels"}, {"measurement": "levels of γH2AX", "setting": "[2]", "value": "increased levels"}, {"measurement": "tumor growth", "setting": "[3]", "value": "no effect"}, {"measurement": "time of peak of phosphorylated KAP-1", "setting": "[4]; both cell lines", "value": 3, "unit": "days"}, {"measurement": "phosphorylation of KAP-1 at Ser824", "setting": "[4]", "value": "induced phosphorylation"}, {"measurement": "colony formation", "setting": "[5]", "value": "significantly reduced"}]}
